# Experimental data taken from patent US10166199B2, “Transdermal patch comprising a ropivacaine formulation” (BUZZZ PHARMACEUTICALS LIMITED, priority 2013, dated 2019).
# Like-named read-outs stand apart in the source and are kept apart here.
# Legend:
# [1] = Excipient compatibility with Duro-Tak 87-900A adhesive; assay type: physicochemical; details: ropivacaine 4% (w/w) and excipient 5% (w/w) in Duro-Tak 87-900A; miscible, no precipitate after 72 hours
# Experimental: (§1) Further excipients were assessed for ropivacaine solubility and compatibility with Duro-Tak® adhesive 87-900A. Adhesive compatibility was assessed by mixing ropivacaine (4% (w/w)) and excipient (5% (w/w)) with Duro-Tak® 87-900A.
# [2] = Approximate ropivacaine solubility in excipients, assessed visually; assay type: physicochemical
# Experimental: Approximate solubilities were assessed visually by gradual addition of ropivacaine to a known volume of excipient at room temperature until saturation was observed.
# as §1
# [3] = local anaesthetic during cataract surgery, cited from earlier work
# [4] = solubility of ropivacaine in the named excipient, gradual addition at room temperature, visual
molecule,measurement,setting,value
"CCCCCCCC/C=C\CCCCCCCC(=O)OCC(O)CO (stereo not shown) [Capmul-GMO-50, glycerol monooleate]",900A Compatible,[1],no
"CO[C@H]1CO[C@H]2[C@@H]1OC[C@H]2OC [DMI, dimethylisosorbide]",% Solubility (ropivacaine in candidate excipient),[2]; [4],2.8-3.6 % w/v
"CCOCCOCCO [Transcutol P, ethoxy diglycol]",% Solubility (ropivacaine in candidate excipient),[2]; [4],4.1-4.6 % w/v
same,900A Compatible,[1],yes
"CCCN1CCCC[C@H]1C(=O)Nc1c(C)cccc1C [ropivacaine, (2S)—N-(2,6-dimethylphenyl)-1-propyl-2-piperidinecarboxamide]",potency relative to lidocaine,[3]; dose-for-dose,as much as four times as potent as lidocaine
same,half life relative to lidocaine,[3],longer half life
apricot kernel oil PEG-6 esters [Labrafil M 1944 CS],% Solubility (ropivacaine in candidate excipient),[2],1.2-2.1 % w/v
propylene glycol dicaprylate/dicaprate [Labrafac PG],% Solubility (ropivacaine in candidate excipient),[2],1.3-1.8 % w/v
sorbitan monooleate [Span 80],900A Compatible,[1],no
sorbitan trioleate [Span 85],900A Compatible,[1],yes
